Reference: patent US20260092315A1, “COMPOSITIONS AND METHODS FOR DISCOVERING GENE REGULATION” (UNIVERSITY OF UTAH RESEARCH FOUNDATION, priority 2022, published 2026)

Assays:
[1] = test system: MYC protein; assay: MYC protein level by immunoblot in K562 cells treated with JQ1; format: cell-based; details: 1 uM JQ1 for 6 h
Description: (§1) FIGS. 4A-4C show TRoUT-FISH identifies MYC and BRD4 as regulators of glycolysis. FIG. 4A) TRoUT-FISH data from ENO1 and PGK1 screens. B,C) K562 cells were treated with 1 uM JQ1 for 6 h. FIG. 4B) MYC protein level measured by immunoblot and FIG. 4C) transcripts measured by qPCR. **p<0.01, ****p<0.0001 T-test.
(§2) First, TRoUT-FISH experiments were performed assaying the regulation of ENO1 and PGK1 in K562 cells (FIG. 4A). […] MYC is a well-characterized activator of glycolytic gene expression, and as such served as an internal positive control. BRD4 is a member of the bromodomain and extraterminal domain (BET) family of proteins and is known to regulate MYC at the transcript level.

[2] = test system: MYC transcript; assay: MYC transcript by qPCR in K562 cells treated with JQ1; format: cell-based; details: 1 uM JQ1 for 6 h
Description: as §1, §2

[3] = test system: ENO1 transcript; assay: ENO1 transcript by qPCR in K562 cells treated with JQ1; format: cell-based; details: 1 uM JQ1 for 6 h
Description: as §1, §2

[4] = test system: PGK1 transcript; assay: PGK1 transcript by qPCR in K562 cells treated with JQ1; format: cell-based; details: 1 uM JQ1 for 6 h
Description: as §1, §2

[5] = test system: ERRFI1; details: HCT116 cells treated with JQ1, reprocessed RNA-seq data; cited from earlier work
[6] = test system: p53 protein; assay: p53 protein level after Nutlin-3a treatment of HCT116 cells; format: cell-based; details: HCT116 cells (wildtype for TP53)
Description: (§3) FIGS. 3A-3D show TRoUT-FISH positively identifies known mechanisms of gene regulation. Treatment with Nutlin-3a FIG. 3A) stabilizes p53 protein and FIG. 3B) induces CDKN1A transcription. FIG. 3C) FISH and flow cytometry detects drug induced changes in CDKN1A mRNA levels. FIG. 3D) MAGeCK analysis of Nutlin-3a TRoUT-FISH with CDKN1A as the elucidator. ****p<0.0001 T-test.
(§4) The small molecule Nutlin-3a, which inhibits the interaction between MDM2 and p53 and, in doing so, prevents the proteolytic degradation of p53 and permits activation of downstream targets such as CDKN1A, has been used. […] These changes were then assayed using FISH coupled with flow cytometry (FIG. 2). […] A CRISPR screen was performed in HCT116 cells stably expressing Cas9 with a small library targeting ˜1500 transcription factors, including ten sgRNAs against TP53. After acute selection, cells were treated with vehicle or Nutlin-3a and the transcript abundance of CDKN1A was determined by FISH. CDKN1Alow and CDKN1A high populations were sorted by flow cytometry (e.g. FACS), isolated genomic DNA, and sequenced sgRNAs (FIG. 2). This screen positively identified TP53 as the critical mediator of Nutlin-3a induced CDKN1A expression ([…]).

[7] = test system: CDKN1A transcript; assay: CDKN1A transcript after Nutlin-3a treatment of HCT116 cells; format: cell-based; details: HCT116 cells (wildtype for TP53)
Description: as §3, §4

[8] = test system: CDKN1A mRNA; assay: FISH coupled with flow cytometry for CDKN1A mRNA in HCT116 cells; format: cell-based
Description: as §3
TRoUT-FISH is performed on bulk populations which sidesteps the cost and data sparsity issues common to single cell RNA-seq assays. As TRoUT-FISH experiments are performed without any genetic manipulations prior to CRISPR perturbations, the system is ideally positioned to integrate with other data, including ChIP-seq, ATAC-seq, and ENCODE resources. These other resources provide complementary mechanistic insight of gene regulation. Cells are infected at low MOI with virus encoding a CRISPR library selected based on antibiotic resistance. Cells are cultured for eight days to allow CRISPR editing to occur. […]
The small molecule Nutlin-3a, which inhibits the interaction between MDM2 and p53 and, in doing so, prevents the proteolytic degradation of p53 and permits activation of downstream targets such as CDKN1A, has been used. […] After acute selection, cells were treated with vehicle or Nutlin-3a and the transcript abundance of CDKN1A was determined by FISH. […]

[9] = test system: CDKN1A RNA; assay: MACAREL-FISH barcode recovery with CDKN1A as target RNA; format: cell-based; details: vehicle versus Nutlin-3a barcoded cells, FACS sorted
Description: FIG. 11A-C show Method to Associate Compounds with Altered RNA levels via Fluorescent In Situ Hybridization (MACAREL-FISH). FIG. 11A) Schematic of MACAREL-FISH. FIG. 11B) Schematic of sorting strategy. Magenta boxes indicate the sorted population. Low and high populations were sorted from the Mix 50:50 population.
In brief, cells are arrayed in a 96 well plate (FIG. 11A). MACAREL-FISH is amenable to any cell type including: immortalized cancer cell lines, primary cells, patient cells, and organoids. Each well is incubated with a specific compound. Before, during, or after treatment cells are barcoded (FIG. 11A). Cells are then detached from the plate and fixed with paraformaldehyde (PFA) which locks cells in their current state. Cells are then pooled permeabilized and stained with a DNA dye and incubated overnight in hybridization buffer in the presence of specific DNA oligonucleotides that anneal to an RNA of interest. The DNA oligonucleotides are computationally designed genome-wide to ensure specificity for the elucidator. […] Based on the possible sequence space of barcodes and read length on NGS, this approach can be scaled almost ad infinitum.
Cells were treated with either vehicle control or the small molecule Nutlin-3a. […] After sorting, DNA was extracted and barcodes identity and abundance were measured by sequencing.

SMILES: Cc1sc2c(c1C)C(c1ccc(Cl)cc1)=N[C@@H](CC(=O)OC(C)(C)C)c1nnc(C)n1-2 [JQ1]
- MYC protein level [1]: significantly downregulated
- MYC transcript level [2]: significantly downregulated
- ENO1 transcript level [3]: significantly downregulated
- PGK1 transcript level [4]: significantly downregulated
- ERRFI1 levels [5]: reduction in ERRFI1 levels

SMILES: COc1ccc(C2=N[C@@H](c3ccc(Cl)cc3)[C@@H](c3ccc(Cl)cc3)N2C(=O)N2CCNC(=O)C2)c(OC(C)C)c1 [Nutlin-3a]
- p53 protein level [6]: stabilization of p53 protein
- CDKN1A transcript level [7]: induction of CDKN1A transcript
- CDKN1A FISH fluorescence by flow cytometry ([8]; HCT116 cells, versus control and inactive enantiomer): higher fluorescence than either the control or inactive enantiomer
- CDKN1A FISH signal upon treatment ([8]; stable TP53 knockout lines): no induction of CDKN1A signal
- Effect on CDKN1A RNA abundance (barcode recovery from sorted populations) [9]: activator of CDKN1A RNA abundance
